From patent publication US9408859B2, “Pharmaceutical compositions useful for preventing and treating cancer” (Mitotech SA, priority 2007, dated 2016)

Key:
[1] = test system: Ehrlich's carcinoma; test: Anti-tumoral effect on hypodermic Ehrlich's carcinoma; type: in vivo, mouse; conditions: 0.5 nM/kg ip
Experimental: The experiment was performed according to the methods described in Example 2.
Injection of the preparation started 48 hours after transplantation and proceeded during 5, 10, 15, and 30 days. For tumor treatment efficiency, estimations of tumor volumes were evaluated many times after end of short courses or once after end of the 30-day course. […] The results were then statistically calculated using confidence intervals of mean values of compared values, difference stated reliable if p<0.05.

[2] = test system: Lung Lewis's carcinoma; test: SkQ1 combined with doxorubicin on growth of lung Lewis's carcinoma; type: in vivo, mouse; conditions: regime per group
Experimental: For development of oncological diseases joint therapy that combines SkQ1 and chemotherapy, a study on SkQ1 influence on single doxorubicin injection efficiency was performed (one of the mechanisms of the preparation is activation of oxidative processes in normal and cancerous cells). SkQ1 was introduced before, simultaneously, or after introduction of doxorubicin in maximum dose of 500 nM/kg (in order to block oxidative mechanism of doxorubicin influence).
Doxorubicin was applied before, after, and during the course of SkQ1.

[3] = Mouse life-span when managed in a chamber without sterile aeration; type: in vivo; conditions: SkQ1 added to drinking water
[4] = test system: human rhabdomyosarcoma cell line (RD); test: RD cell morphology, attachment and multinuclear cells; type: cell-based
Experimental: In the following experiment, a human rhabdomyosarcoma cell line (RD) purchased from the ATCC (#CCL-136) was used. These cells were isolated from a […] 7 years ago and are widely accepted as a model for studies of rhabdomyosarcoma in vitro and in vivo.
The cells were grown in Dulbecco's modified Eagle's medium (DMEM, Gibco®, Invitrogen, Carlsbad, Calif.) supplemented with 10% FBS. The cells were treated with 20 nM SkQ (SkQ1, SkQR1, SkQB1, or SkQBP1), or with a non-targeted antioxidant (1 mM NAC, or 100 μM Trolox) 24 to 72 hours before evaluation. In some experiments 1 μM of the protonophorous uncoupler FCCP was added 1 hour before the addition of SkQ1 to depolarize the mitochondrial membrane, and thus to prevent the electrophoretic accumulation of SkQ in the mitochondrial interior. The cells were then stained with rabbit polyclonal antibodies against actin (1:1000) (Sigma-Aldrich Corp., Baleras, Russia) and monoclonal antibody DM1A against tubulin (1:1000) (Sigma-Aldrich Corp.), and their morphology examined using an Axiovert fluorescent microscope equipped with objectives 20× (dry) and 100× (oil immersion Neofluar) (Carl Zeiss, Germany).

[5] = test system: human rhabdomyosarcoma cell line (RD); test: Apoptosis in RD cells (Hoechst staining, propidium iodide flow cytometry); type: cell-based; conditions: 20 nM SkQ1 for 24 hours; flow cytometry
Experimental: To determine the viability of the cells, chromatine condensation and fragmentation was analyzed in similarly-treated cells (20 nM SkQ or 1 mM NAC or 100 mM Trolox for 24 hours and 1 μm FCCP one hour before SkQ1 where indicated) after staining with Hoechst 3342 (GenScript, Cat. No. L00309, performed according to manufacture manual http://www.genscript.com/tech_guide/TM0361.pdf). The cells were then examined using an Axiovert fluorescent microscope equipped with objectives 20× (dry) and 100× (oil immersion Neofluar) (Carl Zeiss).
Further evidence of apoptosis was obtained by analysis of DNA content in the cellular population using flow cytometry. Cells were incubated with 0.05% ethanol was added (control) or with 20 nM SkQ1 for 24 hours, and then fixed and stained with propidium iodide (5 μM). They were then analyzed by flow cytometry using a FC-500 FACS (Beckman Coulter, Inc., Brea, Calif.).

## CC1=C(C)C(=O)C(CCCCCCCCCC[P+](c2ccccc2)(c2ccccc2)c2ccccc2)=CC1=O [SkQ1]
[1]; 5-day course, days 2-7, day 7 after transplantation
  tumor volume: 251 mm³
[1]; 5-day course, day 7
  TGS%: 40%
[1]; 5-day course, day 14
  TGS%: 23%
  tumor volume: 547 mm³
[1]; 5-day course, day 21
  TGS%: 16%
  tumor volume: 1000 mm³
[1]; 10-day course, days 2-13, day 7
  tumor volume: 228 mm³
[1]; 10-day course, day 7
  TGS%: 45%
[1]; 10-day course, day 14
  TGS%: 34%
  tumor volume: 474 mm³
[1]; 10-day course, day 21
  TGS%: 28%
  tumor volume: 853 mm³
[1]; 15-day course, days 2-16, day 7
  tumor volume: 259 mm³
[1]; 15-day course, day 7
  TGS%: 38%
[1]; 15-day course, day 14
  TGS%: 36%
  tumor volume: 459 mm³
[1]; 15-day course, day 21
  TGS%: 29%
  tumor volume: 838 mm³
[2]; Day 7, SkQ 500 nmol 0.2 ml/mouse per os x5, DOX 7 mg/kg ip
  TGS %, by tumor volume: 33%
[2]; Day 7, SkQ 500 nmol 0.2 ml/mouse per os x5, DOX 7 mg/kg ip, listed as SkQ
  TGS %, by tumor volume: 33^ %
[2]; Day 10
  TGS %, by tumor volume: 42%
[2]; Day 14
  TGS %, by tumor volume: 48%
[2]; Day 17
  TGS %, by tumor volume: 28%
[2]; Day 21
  TGS %, by tumor volume: 30%
[3]
  Immunity to infectious diseases (by mouse life-span): increased HIV mice immunity to infectious diseases
[4]; 20 nM, pretreatment for 24 hours
  Cell morphology: induced the formation of elongated cells
[4]; 8th day of cultivation with SkQ1
  Multinuclear cells in surviving cell fraction: enriched in multinuclear cells
[4]; 8th day of cultivation with nM SkQ1
  cells remained attached to the surface: about 4%
[5]
  sub-G1 peak (DNA content, propidium iodide): accumulation of apoptotic bodies
